Data reported in patent publication US20190382346A1, “(NITRO-PHENYL)-NITROPYRIDINE COMPOUNDS FOR TREATING SYNUCLEINOPATHIES” (UNIVERSITAT AUTONOMA DE BARCELONA, priority 2017, published 2019).

Assays:
[1] = biological target: T1, human wild-type α-synuclein (Homo sapiens, UniProt P37840); assay: α-synuclein aggregation and thioflavin-T assay; type: biochemical
T1 construct: made in house; host or cells: E. coli BL21 (DE3)
Protocol: (§1) Previously lyophilized α-synuclein was carefully dissolved in PBS buffer to a final concentration of 210 μM and filtered through a Millipore s 0.22-μm filter. α-synuclein aggregation assay was performed in a 96 wells plate (non-treated, black plastic) containing in each well a Teflon polyball (3.175 mm in diameter), 40 μM thioflavin-T, 70 μM α-synuclein, 100 μM of the tested compound and PBS up to a final volume of 150 μL. Plates were fixed into an orbital culture shaker Max-Q 4000 Thermo Scientific to keep the incubation at 37° C., 100 rpm. Every 2 hours, the fluorescence intensity was measured using a Victor3.0 Multilabel Reader by exciting the mixtures with 430-450 filter and collecting the emission intensity with 480-510 filter (triplicates for each measurement). Each plate contained 3 α-synuclein controls in the absence of any compound. The averaged Th-T fluorescence obtained for these wells at the end of the experiment was normalized to 1 and the kinetic curves in the different wells re-scaled accordingly. Re-scaled curves were used to compare the controls with the effect of the tested compound and to ensure that the controls were reproducible between different experiments. For the titration assay, different concentrations of tested compound (200, 150, 100, 75 and 25 μM) were used. For the scattering assay, 70 μM α-synuclein, 100 μM of the tested compound or DMSO (in control samples) and PBS up to a final volume of 1 mL were incubated in low-binding plastic tubes (Protein LoBind Tube 1.5 mL, Eppendorf) using a thermomixer (Thermomixer comfort, Eppendorf) at 37° C. and 600 rpm. After 2 weeks, scattering of the samples was analyzed at 300 nm and 340 nm using a Varian fluorimeter.
Each sample was tested in triplicate. Each plate contained an also triplicated control without tested compound.
In the aggregation assay described above, α-synuclein aggregates within approximately 24 h with a sigmoidal aggregation curve.

α-synuclein fibrils = biological target: T2, α-synuclein fibrils (Homo sapiens, UniProt P37840); assay: Transmission Electron Microscopy of α-synuclein fibrils at end of aggregation reaction; type: biochemical; conditions: end of the aggregation reaction
T2 construct: made in house; host or cells: E. coli BL21 (DE3)
Protocol: α-synuclein fibers from final point reaction (either in absence or presence of the final concentration inhibitors) were collected in Eppendorfs. After diluting the aggregated α-synuclein to a concentration of 10 μM α-synuclein, each sample was sonicated for 10 minutes. 5 μL of these samples were placed on carbon-coated copper grids and allowed to stand for 5 minutes. Then, samples were carefully dried with filter paper to remove the excess of sample. Grids were washed twice with MiliQ water by immersion and stained by incubating grids with 5 μL 2% (w/v) uranyl acetate for 2 minutes for the negative staining. After removal of the uranyl acetate excess with filter paper, grids were let to air-dry for 10 minutes. The samples were imaged using a Jeol 1400 Transmission Electron Microscopy operating at an accelerating voltage of 120 kV. 30 fields were screened at least, to obtain representative images.

[2] = biological target: T1, human wild-type α-synuclein; assay: α-synuclein aggregation scattering assay; type: biochemical; conditions: 100 μM compound, 70 μM α-synuclein, 2 weeks, 37° C., 600 rpm
Protocol: as §1, with “For the titration assay, different concentrations of tested compound (200, 150, 100, 75 and 25 μM) were used. For the scattering assay, 70 μM α-synuclein, 100 μM of the tested compound or DMSO (in control samples) and PBS up to a final volume of 1 mL were incubated in low-binding plastic tubes (Protein LoBind Tube 1.5 mL, Eppendorf) using a thermomixer (Thermomixer comfort, Eppendorf) at 37° C. and 600 rpm.” left out, “fluorimeter. […]” for “fluorimeter.”

[3] = biological target: T3, human H50Q mutant α-synuclein (Homo sapiens, UniProt P37840, H50Q); assay: thioflavin-T aggregation assay, H50Q mutant; type: biochemical; conditions: 100 μM compound, 70 μM α-synuclein, 24 h
T3 construct: made in house; host or cells: E. coli BL21 (DE3)
Protocol: as §1, with “For the titration assay, different concentrations of tested compound (200, 150, 100, 75 and 25 μM) were used. For the scattering assay, 70 μM α-synuclein, 100 μM of the tested compound or DMSO (in control samples) and PBS up to a final volume of 1 mL were incubated in low-binding plastic tubes (Protein LoBind Tube 1.5 mL, Eppendorf) using a thermomixer (Thermomixer comfort, Eppendorf) at 37° C. and 600 rpm.” left out, “fluorimeter. […] Every 2 hours, the thioflavin-T fluorescence intensity was measured as described above.” for “fluorimeter.”

[4] = biological target: T4, human A30P mutant α-synuclein (Homo sapiens, UniProt P37840, A30P); assay: thioflavin-T aggregation assay, A30P mutant; type: biochemical; conditions: 100 μM compound, 70 μM α-synuclein, 24 h
T4 construct: made in house; host or cells: E. coli BL21 (DE3)
Protocol: as §1, with “For the titration assay, different concentrations of tested compound (200, 150, 100, 75 and 25 μM) were used. For the scattering assay, 70 μM α-synuclein, 100 μM of the tested compound or DMSO (in control samples) and PBS up to a final volume of 1 mL were incubated in low-binding plastic tubes (Protein LoBind Tube 1.5 mL, Eppendorf) using a thermomixer (Thermomixer comfort, Eppendorf) at 37° C. and 600 rpm.” left out, “fluorimeter. […] Every 2 hours, the thioflavin-T fluorescence intensity was measured as described above.” for “fluorimeter.”

[5] = system: human wild-type α-synuclein fused to yellow fluorescent protein (YFP); assay: C. elegans α-synuclein aggregation model; type: in vivo; conditions: 10 μM compound, 5 days from L4 stage, strain NL5901
Protocol: α-synuclein aggregation was assessed using an C. elegans in vivo model described by (Van Ham et al., 2008) and (Muñoz-Lobato et al., 2014).
The nematode strain NL5901, unc-119(ed3) III; [pkls2386 (Punc-54::α-syn::yfp; unc-119(+))] was obtained from the Caenorhabditis elegans Genetic Center (CGC), University of Minnesota, USA. The strain expresses a fusion of human wildtype α-synuclein and yellow fluorescent protein (YFP) in body wall muscle cells. The nematodes were maintained using standard procedures, grown in NGM agar plates and fed with E coli (OP50 strain). Adult worms were bleached to get synchronized nematode cultures. NGM-agar plates with a) DMSO only (vehicle) and b) 10 μM final concentration of the tested compound were prepared. Afterwards, OP50 containing a) or b) was added to NGM plates and let dry for 24 h. […] After 5 days of development (L4+5) the numbers of α-synuclein aggregates were determined using a fluorescence microscope. […] The same section in each animal was analyzed and captured in stacks to include aggregates contained from the top to the bottom of each animal ([…], 25 stacks). Image analysis was performed using ImageJ software, from the Z MAX acquisition, quantifying the number of α-synuclein-YFP aggregates. Final quantification and statistics was performed by the Graph Pad Prism 6.0 software, comparing vehicle-treated worms with drug-treated animals. […]

in vitro = type: cell-based; conditions: human
Protocol: Cultured cells of human neuroblastoma cell line SH-SY5Y were incubated for 72 h with either the vehicle (DMSO) or with different concentrations of the compound. Then, the cells were incubated with a cell viability indicator (PrestoBlue® Cell Viability Reagent). The modification of PrestoBlue® Cell Viability Reagent by the reducing environment of viable cells turns the dye red in color becoming highly fluorescent. This color change can be detected measuring fluorescence by exciting at 531 nm and detecting emission at 615 nm. The CC50 of compound D (concentration that caused death in 50% of the cells, i.e. reduction to 50% viability) was >700 μM (FIG. 6).

[6] = 70 μM α-synuclein, 100 μM compound, 37° C.

N#Cc1c(O)nc(-c2cccc([N+](=O)[O-])c2)c([N+](=O)[O-])c1C(F)(F)F [compound D, 2-hydroxy-5-nitro-6-(3-nitrophenyl)-4-(trifluoromethyl)nicotinonitrile]
delay of halftime of aggregation relative to the control [1, 6]: 3 h
inhibition of α-synuclein aggregation at the end of the aggregation reaction relative to the control (thioflavin-T fluorescence) [1, 6]: 32.4%
anti-aggregation activity in titration assays ([1]; 200, 150, 100, 75 and 25 μM compound, 70 μM α-synuclein): clear dose-dependent anti-aggregation activity
k1 (nucleation rate constant), Finke-Watzky two-step model ([1]; fitted aggregation curves): decreased
k2 (growth rate constant), Finke-Watzky two-step model ([1]; fitted aggregation curves): decreased
activity at sub-stoichiometric protein:compound ratios ([1]; titration assay, 70 μM α-synuclein): showed activity
number and size of α-synuclein fibrils compared to control (TEM) (α-synuclein fibrils): significant decrease in both number and size of α-synuclein fibrils
inhibition of human wild-type α-synuclein aggregation (scattering at 300 nm and 340 nm) [2]: inhibits
inhibition of human H50Q mutant α-synuclein aggregation (thioflavin-T fluorescence) [3]: inhibits
inhibition of human A30P mutant α-synuclein aggregation (thioflavin-T fluorescence) [4]: inhibits
α-synuclein-YFP protein inclusions in muscle cells of the worms [5]: significantly decreased
CC50 at 72 h (in vitro): > 700 µM
